Where two headings read alike, the source gives them in different places.
Key:
Assay type in all cases: biochemical
[1] = molecular target: Pim3 kinase (Homo sapiens, UniProt Q86V86); assay: Pim3 ATP depletion assay
[2] = molecular target: Pim1 kinase (Homo sapiens, UniProt P11309); assay: Pim1 ATP depletion assay; conditions: Pim1 ATP depletion assay;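 also: Luciferase-luciferin luminescence readout of residual ATP after PIM1 transfers phosphate to a peptide substrate, 40 µM ATP added, reaction run to roughly half ATP consumption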
Chain of Pim1 kinase (P11309 whole entry): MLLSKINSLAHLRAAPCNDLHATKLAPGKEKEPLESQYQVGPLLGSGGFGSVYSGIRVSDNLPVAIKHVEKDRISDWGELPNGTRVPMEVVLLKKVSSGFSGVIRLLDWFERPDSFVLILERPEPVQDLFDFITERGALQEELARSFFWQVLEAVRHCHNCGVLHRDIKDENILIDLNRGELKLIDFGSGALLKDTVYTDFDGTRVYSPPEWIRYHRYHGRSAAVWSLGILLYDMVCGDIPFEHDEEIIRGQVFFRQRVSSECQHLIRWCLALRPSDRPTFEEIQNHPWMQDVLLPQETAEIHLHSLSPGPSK

[3] = molecular target: Pim2 kinase (Homo sapiens, UniProt Q9P1W9); assay: Pim2 ATP depletion assay;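 also: Luciferase-based luminescent readout of ATP remaining after PIM2 phosphorylates a BAD peptide, final 5 nM enzyme, 4 µM ATP, 10 µM peptide, 2.5% DMSO, run to roughly half ATP consumption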
Chain of Pim2 kinase (Q9P1W9 whole entry): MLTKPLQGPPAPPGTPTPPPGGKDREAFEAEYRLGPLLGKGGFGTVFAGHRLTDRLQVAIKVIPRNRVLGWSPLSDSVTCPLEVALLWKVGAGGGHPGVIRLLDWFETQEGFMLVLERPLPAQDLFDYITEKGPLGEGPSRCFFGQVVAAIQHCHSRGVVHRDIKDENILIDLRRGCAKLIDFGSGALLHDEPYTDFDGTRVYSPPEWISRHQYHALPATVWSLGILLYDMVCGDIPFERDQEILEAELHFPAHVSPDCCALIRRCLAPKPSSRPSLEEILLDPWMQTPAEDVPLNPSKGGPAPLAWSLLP

Row | IC50 ([1]; read-out: IC50 (μM) PIM3) [µM] | IC50 ([2]; read-out: IC50 (μM) PIM1) [µM] | IC50 ([3]; read-out: IC50 (μM) PIM2) [µM] | IC50 ([1]; read-out: PIM3 IC50) [µM] | IC50 ([2]; read-out: PIM1 IC50) [µM] | IC50 ([3]; read-out: PIM2 IC50) [µM] | SMILES
1 | < 1 | < 1 | < 1 | – | – | – | Nc1cc(F)c(-c2ccccc2)nc1C(=O)Nc1cnccc1N1CCC[C@H](N)C1 [Example 499, 3-Amino-5-fluoro-6-phenyl-pyridine-2-carboxylic acid (3-amino-3,4,5,6-tetrahydro-2H-[1,4′]bipyridinyl-3′-yl)-amide]
2 | – | – | – | < 1 | < 1 | < 1 | COc1cc(-c2ccncc2NC(=O)c2nc(-c3c(F)cccc3F)ccc2N)cc(N)n1 [Example 608, 3-Amino-6-(2,6-difluoro-phenyl)-pyridine-2-carboxylic acid (6′-amino-2′-methoxy-[4,4′]bi-pyridinyl-3-yl)-amide]
3 | – | – | – | < 1 | < 1 | < 1 | CCOc1cncc(-c2ccc(N)c(C(=O)Nc3cnccc3N3CCC[C@H](N)C3)n2)n1 [Example 749, 3-Amino-6-(6-ethoxy-pyrazin-2-yl)-pyridine-2-carboxylic acid (3-amino-3,4,5,6-tetrahydro-2H-[1,4′]bipyridinyl-3′-yl)-amide]
4 | – | – | – | < 1 | < 1 | < 1 | CC1(N)CCCN(c2ccncc2NC(=O)c2nc(-c3ccccc3F)ncc2N)C1 (stereo not drawn) [Example 676, 5-Amino-2-(2-fluoro-phenyl)-pyrimidine-4-carboxylic acid (3-amino-3-methyl-3,4,5,6-tetrahydro-2H-[1,4′]bi-pyridinyl-3′-yl)-amide]
5 | < 1 | < 1 | < 1 | – | – | – | CC1CC(N)CN(c2ccncc2NC(=O)c2nc(-c3c(F)cccc3F)ccc2N)C1 (stereo not drawn) [Example 288, 3-Amino-6-(2,6-difluoro-phenyl)-pyridine-2-carboxylic acid (3-amino-5-methyl-3,4,5,6-tetrahydro-2H-[1,4′]bipyridinyl-3′-yl)-amide]
6 | < 1 | < 1 | < 1 | – | – | – | CC(C)c1cccc(-c2ccc(N)c(C(=O)Nc3cnccc3N3CCC[C@H](N)C3)n2)c1 [Example 456, 3-Amino-6-(3-isopropyl-phenyl)-pyridine-2-carboxylic acid (3-amino-3,4,5,6-tetrahydro-2H-[1,4′]bipyridinyl-3′-yl)-amide]
7 | < 1 | < 1 | < 1 | – | – | – | Nc1ccc(-c2ccc(Cl)s2)nc1C(=O)Nc1cnccc1N1CCC[C@H](N)C1 [Example 450, 3-Amino-6-(5-chloro-thiophen-2-yl)-pyridine-2-carboxylic acid (3-amino-3,4,5,6-tetrahydro-2H-[1,4′]bipyridinyl-3′-yl)-amide]
8 | – | – | – | < 1 | < 1 | < 1 | Cc1cnccc1-c1ccncc1NC(=O)c1nc(-c2ccccc2F)ccc1N [Example 613, 3-amino-6-(2-fluorophenyl)-N-(3′-methyl-4,4′-bipyridin-3-yl)pyridine-2-carboxamide]
9 | < 1 | < 1 | < 1 | – | – | – | Nc1ccc(-c2c(F)cccc2F)nc1C(=O)Nc1cnccc1N1CCCOCC1 [Example 168, 3-Amino-6-(2,6-difluoro-phenyl)-pyridine-2-carboxylic acid (4-[1,4]oxazepan-4-yl-pyridin-3-yl)-amide]
10 | < 1 | < 1 | < 1 | – | – | – | Nc1cc(F)c(-c2ccncc2)nc1C(=O)Nc1cnccc1N1CCC[C@H](N)C1 [Example 513, 5-Amino-3-fluoro-[2,4′]bi-pyridinyl-6-carboxylic acid (3-amino-3,4,5,6-tetrahydro-2H-[1,4′]bipyridinyl-3′-yl)-amide]
11 | – | – | – | < 1 | < 1 | < 1 | Cc1cc(-c2ccncc2NC(=O)c2nc(-c3ncccc3F)ccc2N)cc(N)n1 [Example 746, 5-Amino-3′-fluoro-[2,2′]bi-pyridinyl-6-carboxylic acid (2′-amino-6′-methyl-[4,4′]bi-pyridinyl-3-yl)-amide]
12 | – | – | – | < 1 | < 1 | < 1 | COc1ccccc1-c1ncc(N)c(C(=O)Nc2cnccc2N2CCC[C@H](N)C2)n1 [Example 551, 5-Amino-2-(2-methoxy-phenyl)-pyrimidine-4-carboxylic acid (3-amino-3,4,5,6-tetrahydro-2H-[1,4′]bipyridinyl-3′-yl)-amide]
13 | – | – | – | < 1 | < 1 | < 1 | Nc1ccc(-c2cccc(Cl)n2)nc1C(=O)Nc1cnccc1N1CCC[C@H](N)C1 [Example 710, 5-Amino-6′-chloro-[2,2′]bi-pyridinyl-6-carboxylic acid (3-amino-3,4,5,6-tetrahydro-2H-[1,4′]bipyridinyl-3′-yl)-amide]
14 | < 1 | < 1 | < 1 | – | – | – | Nc1ccc(-c2c(F)cccc2F)nc1C(=O)Nc1cnccc1N1CC[C@H]2OC(=O)N[C@H]2C1 [Example 302, 3-Amino-6-(2,6-difluoro-phenyl)-pyridine-2-carboxylic acid [4-(2-oxo-hexahydro-oxazolo[4,5-c]pyridin-5-yl)-pyridin-3-yl]-amide]
15 | – | – | – | < 1 | < 1 | < 1 | Nc1cc(-c2ccncc2NC(=O)c2nc(-c3nccs3)ccc2N)cc(C(F)(F)F)n1 [Example 640, 3-amino-N-[2′-amino-6′-(trifluoromethyl)-4,4′-bipyridin-3-yl]-6-(1,3-thiazol-2-yl)pyridine-2-carboxamide]
16 | – | – | – | < 1 | < 1 | < 1 | CC(C)/C=C\c1ccc(F)c(-c2ccc(N)c(C(=O)Nc3cnccc3N3CCC[C@H](N)C3)n2)c1 [Example 687, 3-Amino-6-[2-fluoro-5-(3-methyl-but-1-enyl)-phenyl]-pyridine-2-carboxylic acid (3-amino-3,4,5,6-tetrahydro-2H-[1,4′]bipyridinyl-3′-yl)-amide]
17 | – | – | – | < 1 | < 1 | < 1 | CCc1cc(-c2ccncc2NC(=O)c2nc(-c3c(F)cccc3F)ccc2N)cc(N)n1 [Example 620, 3-Amino-6-(2,6-difluoro-phenyl)-pyridine-2-carboxylic acid (6′-amino-2′-ethyl-[4,4′]bipyridinyl-3-yl)-amide]
18 | – | – | – | < 1 | < 1 | < 1 | COc1cncc(-c2ccncc2NC(=O)c2nc(-c3ccccc3F)ccc2N)c1 [Example 609, 3-amino-6-(2-fluorophenyl)-N-(5-methoxy-3,4′-bipyridin-3′-yl)pyridine-2-carboxamide]
19 | – | – | – | < 1 | < 1 | 1 to 10 | COc1cccnc1-c1ccc(N)c(C(=O)Nc2cnccc2N2CCC[C@H](N)C2)n1 [Example 697, 5-Amino-3′-methoxy-[2,2′]bi-pyridinyl-6-carboxylic acid (3-amino-3,4,5,6-tetrahydro-2H-[1,4′]bipyridinyl-3′-yl)-amide]
20 | < 1 | < 1 | < 1 | – | – | – | CC(C)Oc1ccc(F)c(-c2ccc(N)c(C(=O)Nc3cnccc3N3CCC[C@H](N)C3)n2)c1 [Example 467, 3-Amino-6-(2-fluoro-5-isopropoxy-phenyl)-pyridine-2-carboxylic acid (3-amino-3,4,5,6-tetrahydro-2H-[1,4′]bipyridinyl-3′-yl)-amide]
21 | < 1 | < 1 | < 1 | – | – | – | Nc1ccc(-c2ccsc2)nc1C(=O)Nc1cnccc1N1CCC[C@H](N)C1 [Example 449, 3-Amino-6-thiophen-3-yl-pyridine-2-carboxylic acid (3-amino-3,4,5,6-tetrahydro-2H-[1,4′]bipyridinyl-3′-yl)-amide]
22 | – | – | – | < 1 | < 1 | 1 to 10 | Cc1ccccc1-c1ccncc1NC(=O)c1nc(-c2ccccc2F)ccc1N [Example 586, 3-amino-6-(2-fluoro-phenyl)-pyridine-2-carboxylic acid (4-o-tolyl-pyridin-3-yl)-amide]
23 | – | – | – | < 1 | < 1 | < 1 | COc1ncccc1-c1ccncc1NC(=O)c1nc(-c2ccccc2F)ccc1N [Example 611, 3-amino-6-(2-fluorophenyl)-N-(2-methoxy-3,4′-bipyridin-3′-yl)pyridine-2-carboxamide]
24 | – | – | – | < 1 | < 1 | < 1 | Nc1ccc(-c2cncc3ccccc23)nc1C(=O)Nc1cnccc1N1CCC[C@H](N)C1 [Example 692, 3-Amino-6-isoquinolin-4-yl-pyridine-2-carboxylic acid (3-amino-3,4,5,6-tetrahydro-2H-[1,4′]bipyridinyl-3′-yl)-amide]
25 | < 1 | < 1 | < 1 | – | – | – | Nc1cnc(-c2c(F)cccc2F)nc1C(=O)Nc1cnccc1N1CC[C@@H](F)[C@H](N)C1 (stereo in doubt) [Example 256, 5-Amino-2-(2,6-difluoro-phenyl)-pyrimidine-4-carboxylic acid (3-amino-4-fluoro-3,4,5,6-tetrahydro-2H-[1,4′]bipyridinyl-3′-yl)-amide]
26 | – | – | – | < 1 | < 1 | < 1 | Nc1ccc(-c2ccccc2F)nc1C(=O)Nc1cnccc1-c1cnc(N)c(C(F)(F)F)c1 [Example 603, 3-amino-N-[6-amino-5-(tri-fluoromethyl)-3,4′-bipyridin-3′-yl]-6-(2-fluorophenyl)pyridine-2-carboxamide]
27 | > 25 | > 25 | > 25 | – | – | – | Cc1cnc(C(=O)Nc2cnccc2N2CCCC(N)C2)cn1 (stereo not drawn) [Example 198, N-[4-(3-aminopiperidin-1-yl)pyridin-3-yl]-5-methyl-pyrazine-2-carboxamide]
28 | – | – | – | < 1 | < 1 | < 1 | Cc1nc(N)cc(-c2ccncc2NC(=O)c2nc(-c3cc(C(=O)N(C)C)ccc3F)c(F)cc2N)n1 [Example 561, 3-Amino-6-(5-dimethylcarbamoyl-2-fluoro-phenyl)-5-fluoro-pyridine-2-carboxylic acid [4-(6-amino-2-methyl-pyrimidin-4-yl)-pyridin-3-yl]-amide]

— patent US20140249135A1, “PIM KINASE INHIBITORS AND METHODS OF THEIR USE” (NOVARTIS AG, priority 2007, published 2014)
